Assay [1] deals with T1, VIP peptides (Homo sapiens, UniProt P01282).
T1 sequence (P01282 whole entry): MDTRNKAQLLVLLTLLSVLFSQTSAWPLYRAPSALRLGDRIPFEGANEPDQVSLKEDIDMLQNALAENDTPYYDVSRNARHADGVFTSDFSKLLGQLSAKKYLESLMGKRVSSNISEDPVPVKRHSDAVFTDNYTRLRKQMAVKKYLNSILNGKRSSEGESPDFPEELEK

The target in assay [2] is T2, VIP peptides (Rattus norvegicus, UniProt P01283).
T2 sequence (P01283 whole entry): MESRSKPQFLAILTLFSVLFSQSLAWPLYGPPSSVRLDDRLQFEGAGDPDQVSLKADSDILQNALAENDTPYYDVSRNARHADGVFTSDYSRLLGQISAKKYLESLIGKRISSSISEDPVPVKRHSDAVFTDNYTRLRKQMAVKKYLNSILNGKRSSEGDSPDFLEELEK

Values joined by “and” are separate entries in the source; they are usually repeats but may differ in a detail not shown here. Equal entries are not always repeated. Non-standard residues stand in square brackets, D forms with d. Residues, ends and D or L forms follow the SMILES beside them. ξ: configuration not given here. Ile(3ξ) = CCC(C)[C@H](N)C(=O)O

The compound `CC[C@H](C)[C@H](NC(=O)[C@H](CO)NC(=O)[C@H](CC(N)=O)NC(=O)[C@H](CC(C)C)NC(=O)[C@H](Cc1ccc(O)cc1)NC(=O)[C@H](CCCCN)NC(=O)[C@H](CCCCN)NC(=O)[C@@H](NC(=O)[C@H](C)NC(=O)[C@H](CCSC)NC(=O)[C@H](CCC(N)=O)NC(=O)[C@H](CCCCN)NC(=O)[C@H](CCCN=C(N)N)NC(=O)[C@H](CC(C)C)NC(=O)[C@H](CCCN=C(N)N)NC(=O)[C@@H](NC(=O)[C@H](Cc1ccc(O)cc1)NC(=O)[C@H](CC(N)=O)NC(=O)[C@H](CC(=O)O)NC(=O)[C@@H](NC(=O)[C@H](Cc1ccccc1)NC(=O)[C@@H](NC(=O)[C@H](C)NC(=O)[C@H](CC(=O)O)NC(=O)[C@H](CO)NC(=O)[C@@H](N)Cc1cnc[nH]1)C(C)C)[C@@H](C)O)[C@@H](C)O)C(C)C)C(=O)N[C@@H](CC(C)C)C(=O)N[C@@H](CC(N)=O)C(=O)O` [CAS_37221-79-7] had a Ki on VIP peptides [1] of 150 nM.

With `CC[C@H](C)[C@H](NC(=O)CNC(=O)[C@H](CCC(=O)O)NC(=O)[C@H](CO)NC(=O)[C@@H](N)Cc1cnc[nH]1)C(=O)N[C@@H](Cc1ccccc1)C(=O)N[C@H](C(=O)N[C@@H](CC(=O)O)C(=O)N[C@@H](CO)C(=O)N[C@@H](Cc1ccc(O)cc1)C(=O)N[C@@H](CO)C(=O)N[C@@H](CCCNC(=N)N)C(=O)N[C@@H](Cc1ccc(O)cc1)C(=O)N[C@@H](CCCNC(=N)N)C(=O)N[C@@H](CCCCN)C(=O)N[C@@H](CCC(N)=O)C(=O)N[C@@H](CCSC)C(=O)N[C@@H](C)C(=O)N[C@H](C(=O)N[C@@H](CCCCN)C(=O)N[C@@H](CCCCN)C(=O)N[C@@H](Cc1ccc(O)cc1)C(=O)N[C@@H](CC(C)C)C(=O)N[C@@H](C)C(=O)N[C@@H](C)C(=O)N[C@H](C(=O)N[C@@H](CC(C)C)C(N)=O)C(C)C)C(C)C)[C@@H](C)O` [PACAP(1-27)], the inhibition constant Ki on VIP peptides [1] is 0.3 nM; at VIP peptides [2] it was 1.5 nM and 0.5 nM and 1 nM.

In the case of `[C][C][C]([C])[C@H]([N]C(=O)[C][N]C(=O)[C@H]([C][C]C([O])=O)[N]C(=O)[C@@H]([N])[C][O])C(=O)[N][C@@H]([C]c1ccccc1)C(=O)[N][C@H](C(=O)[N][C@@H]([C]C([O])=O)C(=O)[N][C@@H]([C][O])C(=O)[N][C@@H]([C]c1ccc([O])cc1)C(=O)[N][C@@H]([C][O])C(=O)[N][C@@H]([C][C][C]N=C([N])[N])C(=O)[N][C@@H]([C]c1ccc([O])cc1)C(=O)[N][C@@H]([C][C][C]N=C([N])[N])C(=O)[N][C@@H]([C][C][C][C][N])C(=O)[N][C@@H]([C][C]C([N])=O)C(=O)[N][C@@H]([C][C]S[C])C(=O)[N][C@@H]([C])C(=O)[N][C@@H]([C]([C])[C])C(=O)[N][C@@H]([C][C][C][C][N])C(=O)[N][C@@H]([C][C][C][C][N])C(=O)[N][C@@H]([C]c1ccc([O])cc1)C(=O)[N][C@@H]([C][C]([C])[C])C(=O)[N][C@@H]([C])C(=O)[N][C@@H]([C])C(=O)[N][C@@H]([C]([C])[C])C(=O)[N][C@@H]([C][C]([C])[C])C([N])=O)[C@@H]([C])[O]` [PACAP(2-27)], the inhibitory constant (Ki) was 20 nM on VIP peptides [1]; 400 nM and 40 nM at VIP peptides [2].

As to `CCC(C)[C@H](NC(=O)CNC(=O)[C@H](CC(=O)O)NC(=O)[C@@H](N)CO)C(=O)N[C@@H](Cc1ccccc1)C(=O)N[C@H](C(=O)N[C@@H](CC(=O)O)C(=O)N[C@@H](CO)C(=O)N[C@@H](Cc1ccc(O)cc1)C(=O)N[C@@H](CO)C(=O)N[C@@H](CCCN=C(N)N)C(=O)N[C@@H](Cc1ccc(O)cc1)C(=O)N[C@@H](CCCN=C(N)N)C(=O)N[C@@H](CCCCN)C(=O)N[C@@H](CCC(N)=O)C(=O)N[C@@H](CCSC)C(=O)N[C@@H](C)C(=O)N[C@H](C(=O)N[C@@H](CCCCN)C(=O)N[C@@H](CCCCN)C(=O)N[C@@H](Cc1ccc(O)cc1)C(=O)N[C@@H](CC(C)C)C(=O)N[C@@H](C)C(=O)N[C@@H](C)C(=O)N[C@H](C(=O)N[C@@H](CC(C)C)C(=O)NCC(=O)N[C@@H](CCCCN)C(=O)N[C@@H](CCCN=C(N)N)C(=O)N[C@@H](Cc1ccc(O)cc1)C(=O)N[C@@H](CCCCN)C(=O)N[C@@H](CCC(N)=O)C(=O)N[C@@H](CCCN=C(N)N)C(=O)N[C@H](C(=O)N[C@@H](CCCCN)C(=O)N[C@@H](CC(N)=O)C(=O)N[C@@H](CCCCN)C(N)=O)C(C)C)C(C)C)C(C)C)[C@@H](C)O` (stereo partly drawn) [PACAP(2-38)] (H-SDG[Ile(3ξ)]FTDSYSRYRKQMAVKKYLAAVLGKRYKQRVKNK-NH2), the inhibitory constant (Ki) was 2 nM at VIP peptides [1]; 10 nM and 4 nM and 30 nM at VIP peptides [2].

For `CC[C@H](C)[C@H](NC(=O)CNC(=O)[C@H](CC(=O)O)NC(=O)[C@H](CO)NC(=O)[C@@H](N)Cc1cnc[nH]1)C(=O)N[C@@H](Cc1ccccc1)C(=O)N[C@H](C(=O)N[C@@H](CC(=O)O)C(=O)N[C@@H](CO)C(=O)N[C@@H](Cc1ccc(O)cc1)C(=O)N[C@@H](CO)C(=O)N[C@@H](CCCNC(=N)N)C(=O)N[C@@H](Cc1ccc(O)cc1)C(=O)N[C@@H](CCCNC(=N)N)C(=O)N[C@@H](CCCCN)C(=O)N[C@@H](CCC(N)=O)C(=O)N[C@@H](CCSC)C(=O)N[C@@H](C)C(=O)N[C@H](C(=O)N[C@@H](CCCCN)C(=O)N[C@@H](CCCCN)C(=O)N[C@@H](Cc1ccc(O)cc1)C(=O)N[C@@H](CC(C)C)C(=O)N[C@@H](C)C(=O)N[C@@H](C)C(=O)N[C@H](C(=O)N[C@@H](CC(C)C)C(=O)NCC(=O)N[C@@H](CCCCN)C(=O)N[C@@H](CCCNC(=N)N)C(=O)N[C@@H](Cc1ccc(O)cc1)C(=O)N[C@@H](CCCCN)C(=O)N[C@@H](CCC(N)=O)C(=O)N[C@@H](CCCNC(=N)N)C(=O)N[C@H](C(=O)N[C@@H](CCCCN)C(=O)N[C@@H](CC(N)=O)C(=O)N[C@@H](CCCCN)C(N)=O)C(C)C)C(C)C)C(C)C)[C@@H](C)O` [PACAP], the inhibitory constant (Ki) at VIP peptides [2] was 0.9 nM and 0.3 nM.

In turn, “H-HSDAVFTDNYTRLRKQMAVKKYLAAVL-NH2 [VIP-PACAP]” came in with a Ki on VIP peptides [1] of 100 nM.

On VIP peptides [1], “H-HSDAVFTDNYTRYRKQMAVKKYLNSILN-OH [[Tyr13]VIP]” showed a Ki of 40 nM.

“H-HSDAVFTDSYTRLRKQMAVKKYLNSILN-NH2 [[Ser9]VIP]”: the Ki on VIP peptides [1] was found to be 50 nM.

In the case of “H-HSDAVFTDSYTRYRKQMAVKKYLNSILN-NH2 [[Ser9,Tyr13]VIP]”, affinity on VIP peptides [1] was put at a Ki of 15 nM.

On VIP peptides [1], “H-HSDGIFTDSYTRLRKQMAVKKYLNSILN-OH [PACAP-VIP]” registered an inhibitory constant (Ki) of 8 nM.

The term Ki denotes the dissociation constant of the complex between target and ligand, obtained from inhibition or displacement.

The values above are taken from BindingDB's records for doi:10.1111/j.1432-1033.1991.tb15734.x (Universit&Eacute, 1991).
